The target of one data set is T1, NHE3 (Homo sapiens, UniProt P48764).
T1 sequence (P48764 26-834): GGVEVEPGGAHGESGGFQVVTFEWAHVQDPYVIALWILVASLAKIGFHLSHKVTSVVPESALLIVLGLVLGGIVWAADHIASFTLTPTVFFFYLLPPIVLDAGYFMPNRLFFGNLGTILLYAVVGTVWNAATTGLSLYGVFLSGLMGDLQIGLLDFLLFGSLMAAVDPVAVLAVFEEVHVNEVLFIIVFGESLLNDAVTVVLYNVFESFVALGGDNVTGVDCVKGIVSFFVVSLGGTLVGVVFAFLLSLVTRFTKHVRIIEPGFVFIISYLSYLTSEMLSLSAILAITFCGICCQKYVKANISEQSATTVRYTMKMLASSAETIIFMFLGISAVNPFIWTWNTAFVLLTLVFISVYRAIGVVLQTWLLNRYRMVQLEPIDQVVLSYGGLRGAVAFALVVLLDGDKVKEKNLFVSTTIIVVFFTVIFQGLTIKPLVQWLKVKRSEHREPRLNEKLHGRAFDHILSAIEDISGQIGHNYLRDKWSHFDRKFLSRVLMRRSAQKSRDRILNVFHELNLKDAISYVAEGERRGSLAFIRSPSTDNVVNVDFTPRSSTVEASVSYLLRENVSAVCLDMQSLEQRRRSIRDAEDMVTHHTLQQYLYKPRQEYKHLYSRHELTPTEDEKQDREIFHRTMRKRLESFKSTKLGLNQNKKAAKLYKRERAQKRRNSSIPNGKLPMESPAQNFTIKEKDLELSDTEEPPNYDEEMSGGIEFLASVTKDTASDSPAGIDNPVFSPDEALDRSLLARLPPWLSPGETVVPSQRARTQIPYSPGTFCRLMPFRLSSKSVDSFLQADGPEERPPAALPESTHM
As to the kind of experiment: Determination of the NHE-inhibitory effect (recovery of intracellular pH after acidification, BCECF fluorescence). The data set is classed as cell-based. Conditions: pH recovery recorded for three minutes with NHE3; BCECF-loaded cells. On the procedure: Description of Assay: Determination of the NHE-Inhibitory Effect
In this assay, the recovery of the intracellular pH (pHj) after an acidification which occurs even under bicarbonate-free conditions with functional NHE was determined. To this end, the pHj was determined using the pH-sensitive fluorescent dye BCECF (Calbiochem, the precursor BCECF-AM was employed). The cells were initially loaded with BCECF. The BCECF fluorescence was determined in a ratio fluorescence spectrometer (Photon Technology International, South Brunswick, N.J., USA) with excitation wavelengths of 505 and 440 nm and an emission wavelength of 535 nm and converted into the pHj using calibration plots. The cells had been incubated in NH4Cl buffer (pH 7.4) for the BCECF loading (NH4Cl buffer: 115 mM NaCl, 20 mM NH4Cl, 5 mM KCl, 1 mM CaCl2, 1 mM MgSO4, 20 mM Hepes, 5 mM glucose, 1 mg/ml BSA; a pH of 7.4 was adjusted with 1 M NaOH). The intracellular acidification was induced by adding 975 μl of an NH4Cl-free buffer (see below) to 25 μl aliquots of the cells incubated in NH4Cl buffer. The subsequent rate of pH recovery was recorded for two minutes with NHE1, five minutes with NHE2 and three minutes with NHE3. To calculate the inhibitory power of the tested substances, the cells were initially investigated in buffers with which there was complete or absolutely no pH recovery. For complete pH recovery (100%), the cells were incubated in Na^+-containing buffer (133.8 mM NaCl, 4.7 mM KCl, 1.25 mM CaCl2, 1.25 mM MgCl2, 0.97 mM Na2HPO4, 0.23 mM NaH2PO4, 5 mM Hepes, 5 mM glucose, a pH of 7.0 was adjusted with 1 M NaOH). To determine the 0% value, the cells were incubated in an Na^+-free buffer (133.8 mM choline chloride, 4.7 mM KCl, 1.25 mM CaCl2, 1.25 mM MgCl2, 0.97 mM K2HPO4, 0.23 mM KH2PO4, 5 mM Hepes, 5 mM glucose, a pH of 7.0 was adjusted with 1 M NaOH). The substances to be tested were made up in the Na^+-containing buffer. The recovery of the intracellular pH at each tested concentration of a substance was expressed as a percentage of the maximum recovery. The IC50 of the respective substance for the individual NHE subtypes was calculated from the percentages of pH recovery using the Sigma Plot program.

pIC50: −log10 of the molar value. Counter-ions that a name gives are not always drawn.

Experimental findings from patent publication US8124621B2, “Substituted 1-amino-4-phenyl-dihydroisoquinolines, methods for the production thereof, use thereof as a medicament, and medicaments containing them” (Sanofi-Aventis, priority 2006, dated 2012) are described below.

Broadly, the melting point is the temperature of the solid-liquid transition. The compound `NC1=NCC(c2ccc(N)cc2)c2cc(Cl)ccc21` (centres unmarked) (as salt: hydrochloride) [Example 1A, 1-Amino-4-(4-aminophenyl)-6-chloro-3,4-dihydroisoquinoline Hydrochloride] showed a melting point of 278 to 284 °C.

The pIC50 is −log10 of the IC50, conventionally taken in molar units. Low readings indicate a large IC50, high ones a small IC50. At NHE3, `CNC1=NCC(c2ccc(N)cc2)c2cc(Cl)ccc21` (centres unmarked) [Example 3, 4-(4-Aminophenyl)-6-chloro-1-methylamino-3,4-dihydroisoquinoline Hydrochloride] gave a negative-log IC50 (pIC50) of 5.31.

`NC1=NCC(c2ccccc2N)c2cc(Cl)ccc21` (centres unmarked) [Example 2, 1-Amino-4-(2-aminophenyl)-6-chloro-3,4-dihydroisoquinoline Hydrochloride] gave a pIC50 against NHE3 of 5.79.

With `NC1=NCC(c2ccc(N)cc2)c2cc(Cl)ccc21` (centres unmarked) [Example 1A, 1-Amino-4-(4-aminophenyl)-6-chloro-3,4-dihydroisoquinoline Hydrochloride], on NHE3, the pIC50 was 5.71.

On NHE3, `NC1=NCC(c2ccc(N)cc2)c2ccccc21` (centres unmarked) [Example 1B, 1-amino-4-(4-aminophenyl)-3,4-dihydroisoquinoline Hydrochloride] showed a pIC50 of 5.08. Against the preceding compound, the pIC50 is 0.63 log units lower.
